Source: patent US5061794A, “Cephalosporin derivatives, and antibacterial agents” (priority 1986, dated 1991)
In brackets after ≈: the same amount, converted by molar mass. Read-outs that look alike come from different tables or passages of the source.

Tests used:
[1] = system: E. coli CSH(RE45); experiment: microbe, parasite or virus in culture; type: cell-based; conditions: Escherichia coli, 16 h, read-out: Minimum Inhibitory Concentration (MIC), *E. coli CSH(RE45), lactamase-producing strain; 10^6 CFU/ml
Procedure, shortened: (§1)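 Agar plate dilution on Mueller Hinton agar containing graded compound levels, inoculated at 10^6 CFU/ml from overnight Mueller Hinton broth cultures. MIC (μg/ml) read after 16 h at 37°C.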

[2] = system: E. coli CSH2 (RK1); experiment: microbe, parasite or virus in culture; type: cell-based; conditions: Escherichia coli, 16 h, read-out: Minimum Inhibitory Concentration (MIC), *E. coli CSH2 (RK1), lactamase-producing strain; 10^6 CFU/ml
Procedure, shortened: as §1

[3] = system: E. cloacae 963; experiment: in vitro antibacterial activity, agar plate dilution method (MIC); type: cell-based; conditions: 10^6 CFU/ml
Procedure, shortened: as §1

[4] = system: E. cloacae Nek 39; experiment: as above; type: cell-based; conditions: Enterobacter cloacae, NEK39, 16 h, read-out: Minimum Inhibitory Concentration (MIC), *E. cloacae Nek 39, lactamase-producing strain; 10^6 CFU/ml
Procedure, shortened: as §1

[5] = system: E. coli GN5482; experiment: as above; type: cell-based; conditions: Escherichia coli, GN5482, 16 h
Procedure, shortened: as §1

[6] = system: E. coli NIHJ JC2; experiment: as above; type: cell-based; conditions: Escherichia coli, NIHJJC2, 16 h, read-out: Minimum Inhibitory Concentration (MIC), E. coli NIHJ JC2, 10^6 CFU/ml, 37° C.
Procedure, shortened: as §1

[7] = system: K. oxytoca GN10650; experiment: as above; type: cell-based; conditions: Klebsiella oxytoca, GN10650, 16 h, read-out: Minimum Inhibitory Concentration (MIC), *K. oxytoca GN10650, lactamase-producing strain; 10^6 CFU/ml
Procedure, shortened: as §1

[8] = system: K. pneumoniae No. 42; experiment: as above; type: cell-based; conditions: Klebsiella pneumoniae, NO.42, 16 h, read-out: Minimum Inhibitory Concentration (MIC), *K. pneumoniae No. 42, lactamase-producing strain; 10^6 CFU/ml
Procedure, shortened: as §1

[9] = system: K. pneumoniae PCI-602; experiment: as above; type: cell-based; conditions: Klebsiella pneumoniae, PCI602, 16 h, read-out: Minimum Inhibitory Concentration (MIC), K. pneumoniae PCI-602; 10^6 CFU/ml
Procedure, shortened: as §1

[10] = system: M. morganii GN5407; experiment: as above; type: cell-based; conditions: Morganella morganii, GN5407, 16 h, read-out: Minimum Inhibitory Concentration (MIC), *M. morganii GN5407, lactamase-producing strain; 10^6 CFU/ml
Procedure, shortened: as §1

[11] = system: P. vulgaris HX-19; experiment: as above; type: cell-based; conditions: Proteus vulgaris, HX19, 16 h, read-out: Minimum Inhibitory Concentration (MIC)
Procedure, shortened: as §1

[12] = system: P. vulgaris No. 33; experiment: as above; type: cell-based; conditions: Proteus vulgaris, NO.33, 16 h, read-out: Minimum Inhibitory Concentration (MIC), *P. vulgaris No. 33, lactamase-producing strain; 10^6 CFU/ml
Procedure, shortened: as §1

[13] = system: S. aureus 209P NIHJ-JC1; experiment: as above; type: cell-based; conditions: Staphylococcus aureus, 16 h
Procedure, shortened: as §1

[14] = system: S. marcescens IAM 1184; experiment: as above; type: cell-based; conditions: Serratia marcescens, IAM1184, 16 h, read-out: Minimum Inhibitory Concentration (MIC)
Procedure, shortened: as §1

[15] = system: S. marcescens No. 16-2; experiment: as above; type: cell-based; conditions: Serratia marcescens, NO.162, 16 h
Procedure, shortened: as §1

[16] = system: Ps. aeruginosa AK 109; experiment: as above; type: cell-based, Pseudomonas aeruginosa; conditions: Pseudomonas aeruginosa, AK109, 16 h
Procedure, shortened: as §1

[17] = system: Ps. aeruginosa AKR17; experiment: as above; type: cell-based, Pseudomonas aeruginosa; conditions: Pseudomonas aeruginosa
Procedure, shortened: as §1

[18] = system: Ps. aeruginosa IF03445; experiment: as above; type: cell-based, Pseudomonas aeruginosa; conditions: Pseudomonas aeruginosa, IF03445, 16 h, read-out: Minimum Inhibitory Concentration (MIC), Ps. aeruginosa IF03445; 10^6 CFU/ml
Procedure, shortened: as §1

[19] = system: Ps. cepacia 23; experiment: as above; type: cell-based, Pseudomonas cepacia; conditions: read-out: Minimum Inhibitory Concentration (MIC)
Procedure, shortened: as §1

[20] = system: A. calcoaceticus No. 4; experiment: as above; type: cell-based, Acinetobacter calcoaceticus; conditions: Acinetobacter calcoaceticus, NO.4, 16 h, 10^6 CFU/ml
Procedure, shortened: as §1

[21] = Enterobacter cloacae, 16 h, E. cloacae 963, read-out: Minimum Inhibitory Concentration (MIC)
[22] = read-out: Minimum Inhibitory Concentration (MIC)
[23] = S. marcescens IAM 1184, 10^6 CFU/ml
[24] = read-out: Minimum Inhibitory Concentration (MIC), *S. marcescens No. 16-2, lactamase-producing strain, 10^6 CFU/ml
[25] = read-out: Minimum Inhibitory Concentration (MIC), Ps. aeruginosa AK 109, 10^6 CFU/ml
[26] = AKR17, 16 h, read-out: Minimum Inhibitory Concentration (MIC)
[27] = Burkholderia cepacia, 16 h, Ps. cepacia 23, 10^6 CFU/ml
[28] = A. calcoaceticus No. 4, read-out: Minimum Inhibitory Concentration (MIC)
[29] = Enterobacter cloacae, 963, 16 h, read-out: Minimum Inhibitory Concentration (MIC), E. cloacae 963
[30] = read-out: Minimum Inhibitory Concentration (MIC), S. aureus 209P NIHJ-JC1, 10^6 CFU/ml, 37° C., 16 hours
[31] = read-out: Minimum Inhibitory Concentration (MIC), A. calcoaceticus No. 4
[32] = 16 h, Ps. aeruginosa AKR17, 10^6 CFU/ml, read-out: Minimum Inhibitory Concentration (MIC)

Row | Structure (SMILES) | MIC [1] [µg/mL] | MIC [2] [µg/mL] | MIC [3, 21] [µg/mL] | MIC [4] [µg/mL] | MIC [5, 22] [µg/mL] | MIC [6] [µg/mL] | MIC [7] [µg/mL] | MIC [8] [µg/mL] | MIC [9] [µg/mL] | MIC [10] [µg/mL] | MIC ([11]; P. vulgaris HX-19, 10^6 CFU/ml) [µg/mL] | MIC [12] [µg/mL] | MIC [13, 22] [µg/mL] | MIC [14, 23] [µg/mL] | MIC [16, 25] [µg/mL] | MIC [18] [µg/mL] | MIC [19, 27] [µg/mL] | MIC [13, 30] [µg/mL] | MIC [15, 22] [µg/mL] | MIC [20, 31] [µg/mL] | also measured
1 | Nc1nc(C(=NOCC(=O)O)C(=O)NC2C(=O)N3C(C(=O)O)=C(CSc4nc(-c5ccc(O)c(O)c5)cs4)CSC23)cs1 (stereo not drawn) [Ex. 43, disodium 7β-[2-(2-aminothiazol-4-yl)-2-carboxylatemethoxyimincacetamido]-3-[4-(3,4-dihydroxyphenyl)thiazol-2-yl]thiomethvl-3-cephem-4-carboxylate] | 0.025 | 0.025 | 0.1 | 0.2 | 0.39 | 0.2 | 0.39 | 0.1 | < 0.006 | 0.05 | < 0.006 | 0.05 | 12.5 | 0.05 | 0.78 | 0.78 | < 0.006 |  |  |  | MIC [15, 24]: 1.56 µg/mL; MIC [17, 26]: 12.5 µg/mL; MIC [20, 28]: 0.2 µg/mL
2 | Nc1nc(C(=NOC2(C(=O)O)CC2)C(=O)NC2C(=O)N3C(C(=O)O)=C(CSc4nc(-c5ccc(O)c(O)c5)cs4)CSC23)cs1 (stereo not drawn) [Ex. 45, disodium 7β-[2-(2-aminothiazol-4-yl)-2-(1-carboxvlate-1-cyclopropoxyimino)acetamido]-3-[4-(3,4-dihvdroxvphenyl)thiazol-2-yl]thiomethyl-3-cephem-4-carboxylate] | 0.05 | 0.025 |  | 0.05 | 0.39 | 0.2 | 0.1 | 0.1 | < 0.006 | 0.05 | < 0.006 | 0.025 |  | 0.05 | 0.78 | 0.78 | < 0.006 | 6.25 | 0.39 | 0.1 | MIC [3, 29]: 0.05 µg/mL; MIC ([17]; AKR17, 16 h, read-out: Minimum Inhibitory Concentration (MIC), Ps. aeruginosa AKR17, 10^6 CFU/ml): 6.25 µg/mL
3 | CCON=C(C(=O)N[C@@H]1C(=O)N2C(C(=O)[O-])=C(CSc3nc(-c4ccc(OC(C)=O)c(OC(C)=O)c4)cs3)CS[C@H]12)c1csc(N)n1.[Na+] [Ex. 49, sodium 3-[4-(3,4-diacetoxyphenyl)-thiazol-2-yl]thiomethyl-7β-[2-(2-aminothiazol-4-yl)-2-ethoxyiminoacetamido]-3-cephem-4-carboxylate] | 0.05 | 0.025 |  | 0.78 |  | 0.39 | 6.25 | 0.05 | < 0.006 | 0.1 |  | 0.05 |  |  | 0.78 | 0.78 |  | 1.56 | 3.12 | 0.39 | MIC [3, 29]: 0.1 µg/mL; MIC ([5]; read-out: Minimum Inhibitory Concentration (MIC), *E. coli GN5482, lactamase-producing strain, 10^6 CFU/ml): 1.56 µg/mL; MIC [11]: 0.0125 µg/mL; MIC [14]: 0.1 µg/mL; MIC [17, 26]: 100 µg/mL; MIC ([19]; Burkholderia cepacia, 23, 16 h): 0.05 µg/mL
4 | CON=C(C(=O)NC1C(=O)N2C(C(=O)O)=C(CSc3nc(C(=O)O)c(-c4ccc(O)c(O)c4)s3)CSC12)c1csc(N)n1 (stereo not shown) [Ex. 52] | 0.05 (≈ 0.0752 µM) | 0.0125 (≈ 0.0188 µM) | 0.1 (≈ 0.15 µM) | 0.78 (≈ 1.17 µM) | 3.12 (≈ 4.69 µM) | 0.39 (≈ 0.587 µM) | 6.25 (≈ 9.4 µM) | 0.1 (≈ 0.15 µM) | < 0.006 | 0.1 (≈ 0.15 µM) |  | 0.1 (≈ 0.15 µM) | 12.5 (≈ 18.8 µM) | 0.1 (≈ 0.15 µM) |  | 6.25 (≈ 9.4 µM) | 0.025 (≈ 0.0376 µM) |  | 12.5 (≈ 18.8 µM) | 0.39 (≈ 0.587 µM) | MIC [11]: 0.0125 µg/mL (≈ 0.0188 µM); MIC [16, 22]: 12.5 µg/mL (≈ 18.8 µM); MIC [17, 32]: > 100 µg/mL
5 | C#CCON=C(C(=O)NC1C(=O)N2C(C(=O)O)=C(CSc3nc(C(=O)O)c(-c4ccc(O)c(O)c4)s3)CSC12)c1csc(N)n1 (stereo not shown) [Ex. 56, disodium 78-[2-(2-aminothiazol-4-yl)-2-proparqyloxyiminoacetamido]-3-[4-carboxylate-5-(3,4-dihydroxyphenyl)thiazol-2-yl]thiomethyl-3-cephem-4-carboxylate] | 0.025 | 0.0125 | 0.2 | 0.78 | 3.12 | 0.78 | 12.5 | 0.1 | < 0.006 | 0.05 | < 0.006 | 0.05 |  | 0.05 | 6.25 | 3.12 | < 0.006 | 6.25 |  |  | MIC [15, 24]: 6.25 µg/mL; MIC [17, 32]: 100 µg/mL; MIC [20, 28]: 0.2 µg/mL
